Assay [1] deals with Hela S3 cells (ATCC HTB22). Put plainly: Growth inhibition on Hela S3 cells. The class given is cell-based. To be noted: Homo sapiens, 72 hours incubation, Giemsa staining, read-out: IC50 against the cell growth. The method, then: Into each well of a 96-well microtiter plate was pipetted 0.1 ml of a 3.0×10^4 cells/ml suspension of Hela S3 cells (ATCC HTB22) in DEM medium containing 10% of fetal calf serum (manufactured by Nissui, hereinafter referred to as "medium A"). This plate was incubated in a carbon dioxide gas incubator at 37° C. for 20 hours. Then, 0.1 ml of the test compound, which had been appropriately diluted with the medium A, was added to each well followed by incubation in the carbon dioxide gas incubator at 37° C. for additional 72 hours. After having removed the culture supernatant, the residue was washed with physiological saline once and treated with 0.1 ml of methanol for 10 minutes to thereby fix the cells. Next, the cells were stained with 0.1 ml of Giemsa's staining solution [stock solution for Giemsa's staining Merck Art 9204 (manufactured by Merck): physiological saline=1:10] for 5 minutes. After having removed the staining solution, the residue was washed with 0.2 ml of water once. Then, the pigment was extracted with 0.2 ml of 0.1N hydrochloric acid, and the absorbance was measured at 620 nm by the use of a microplate reader. From the result of the measurement, the increased amount of the grown cells was determined. […]

Assay [2] relates to Enterococcus hirae ATCC 10541. Put plainly: Antibacterial activity, agar dilution method (MIC). The class given is cell-based. To be noted: ATCC10541, medium pH 7, read-out: Minimum Inhibitory Concentration. As to the method:
(§1) These antibacterial activities were determined by the agar dilution method with the use of a medium (pH 7) comprising 3 g/liter of bactotryptone (manufactured by Difco), 3 g/liter of meat extract, 1 g/liter of yeast extract, 1 g/liter of glucose and 16 g/liter of agar.
For orientation: Agar dilution tests growth on a series of plates holding different concentrations.

The test system of assay [3] is Staphylococcus aureus ATCC 6538P. Put plainly: Antibacterial activity, agar dilution method (MIC). The class given is cell-based. To be noted: ATCC6538P, medium pH 7, read-out: Minimum Inhibitory Concentration. As to the method: as §1
In assay [4] the test system is Bacillus subtilis No. 10707. In words: Antibacterial activity, agar dilution method (MIC). To be noted: medium pH 7, read-out: Minimum Inhibitory Concentration. The class given is cell-based. The method, then:
as §1

Assay [5] deals with Salmonella choleraesuis ATCC 9992. In words: Antibacterial activity, agar dilution method (MIC). The class given is cell-based. To be noted: Salmonella enterica, pH 7, read-out: Minimum Inhibitory Concentration. The method, then:
as §1

In assay [6] the test system is Pseudomonas aeruginosa Bin H No. 1. Put plainly: Antibacterial activity, agar dilution method (MIC). The class given is cell-based. The note with it: medium pH 7, read-out: Minimum Inhibitory Concentration. As to the method: as §1
The test system of assay [7] is Proteus vulgaris ATCC 6897. Put plainly: Antibacterial activity, agar dilution method (MIC). The class given is cell-based. To be noted: ATCC6897, medium pH 7, read-out: Minimum Inhibitory Concentration. As to the method:
as §1

Assay [8] has as its system Candida albicans ATCC 10231. In words: Antibacterial activity, agar dilution method (MIC). The class given is cell-based. The note with it: ATCC10231, medium pH 7, read-out: Minimum Inhibitory Concentration. The method, then:
as §1

For assay [9], the system named is Shigella sonnei ATCC 9290. Put plainly: Antibacterial activity, agar dilution method (MIC). The class given is cell-based. The note with it: ATCC9290, medium pH 7, read-out: Minimum Inhibitory Concentration. The method, then: as §1
In a further assay the test system is Escherichia coli ATCC 26. Put plainly: Antibacterial activity, agar dilution method (MIC). The class given is cell-based. The note with it: ATCC26, medium pH 7, read-out: Minimum Inhibitory Concentration. As to the method: as §1
The subject of assay [10] is Klebsiella pneumoniae ATCC 10031. In words: Antibacterial activity, agar dilution method (MIC). The class given is cell-based. To be noted: ATCC10031, medium pH 7, read-out: Minimum Inhibitory Concentration. As to the method: as §1
Another assay relates to sarcoma 180 tumor. Put plainly: Antitumor activity on sarcoma 180 tumor. The class given is in vivo, male ddY mice. To be noted: for Mean Tumor Volume: once into tail vein on day 1, measured on 7th day after implantation, ddY mice; for Antitumor Activity (T/C): once into tail vein, day 7, mean tumor volume test/control. The method, then: Male ddY mice were used herein, which were grouped into plural groups, each group being comprised of 5 mice. 5×10^6 sarcoma 180 tumor cells were implanted into the subcutaneous tissue in the axillary region of each mouse. On the 1st day after the implantation, a solution of UCH15B dissolved in physiological saline was injected once into the tail vein of each mouse. On the 7th day after the implantation, the mean tumor volume (mm^3) in each mouse was measured. […] Said antitumor activity was calculated according to the following equation.
=[mean tumor volume (mm^3) in mice in test group]/[mean tumor volume (mm^3) in mice in control group (to which was administered physiological saline only)]

For assay [11], the system named is human ovarian cancer strain A2780 tumor. In words: Antitumor activity on human ovarian cancer strain A2780. The class given is in vivo. The note with it: 0.38 mg/kg, once into tail vein; nude mice (BALB/C-nu/nu); 14 days after injection; [V/V0]/[C/C0]. As to the method: Nude mice (BALB/C-nu/nu) were used herein, which were grouped into plural groups, each group being comprised of 5 mice. A human ovarian cancer strain A2780 tumor (a piece of 8mm^3) was implanted into the subcutaneous tissue in the abdominal region of each mouse. After the implantation, when the tumor volume in each tumor-carrying mouse reached between 50 and 300 mm^3, a solution of UCH15B in physiological saline was injected once into the tail vein of each mouse (in the test group). Just before the injection of said UCH15B solution, the volume of the tumor (V0) in each mouse was measured. 14 days after the injection thereof, the volume of the tumor (V) therein was measured. Into each mouse in the control group, only physiological saline was injected. Just before the injection of physiological saline, the volume of the tumor (C0) in each mouse was measured. 14 days after the injection thereof, the volume of the tumor (C) therein was measured. The antitumor activity of the test compound, UCH15B was obtained according to the following equation.
Antitumor Activity=[V/V0]/[C/C0 ]
V: tumor volume (mm^3) in test group after the test
V0 : tumor volume (mm^3) in test group before the test
C: tumor volume (mm^3) in control group after the test
C0 : tumor volume (mm^3) in control group before the test

Converted amounts (≈) assume the structure as drawn.

For orientation: IC50 means the point on the concentration scale where inhibition reaches its midpoint.

As for `N#CC(CC(=O)NC(C=O)C/C=C/CN)NC(=O)c1cc(NC(=O)c2cc(NC(=O)CNC(=N)N)c[nH]2)c[nH]1` (stereo not shown) [UCH15A], in [1], the IC50 is 1200 nM. Besides, the MIC in assay [2] is 2.6 µg/mL (≈ 4.82 µM); in assay [3], 2.6 µg/mL (≈ 4.82 µM); in assay [4], 0.08 µg/mL (≈ 0.148 µM); in assay [5], 0.16 µg/mL (≈ 0.297 µM); in [6], over 50 µg/mL; in [7], 0.16 µg/mL (≈ 0.297 µM). For the same molecule, the MIC in assay [8] worked out at 10.4 µg/mL (≈ 19.3 µM); in assay [9], 0.16 µg/mL (≈ 0.297 µM); with Escherichia coli ATCC 26 it was 0.16 µg/mL (≈ 0.297 µM); in assay [10], 0.02 µg/mL (≈ 0.0371 µM).

With `N#CC(CC(=O)NC(C=O)C/C=C/CN)NC(=O)c1cc(NC(=O)c2cc(NC(=O)CNC(N)=NO)c[nH]2)c[nH]1` (stereo not shown) [UCH15B], in [1], the IC50 was 1000 nM. Also, the “Mean Tumor Volume” value in the assay on sarcoma 180 tumor (0.094 mg/kg) was 1528 mm^3; in the assay on sarcoma 180 tumor (0.19 mg/kg), 1405 mm^3; in the assay with sarcoma 180 tumor (0.38 mg/kg), 1035 mm^3; in the assay with sarcoma 180 tumor (0.75 mg/kg), 522 mm^3. Further, the “Antitumor Activity (T/C)” value came out at 0.65 in the assay on sarcoma 180 tumor (0.094 mg/kg); 0.60 in the assay on sarcoma 180 tumor (0.19 mg/kg); 0.44 in the assay with sarcoma 180 tumor (0.38 mg/kg); 0.22 in the assay on sarcoma 180 tumor (0.75 mg/kg); 0.27 in assay [11]. In addition, the MIC in [2] was 10.4 µg/mL (≈ 18.7 µM); in [3], 5.2 µg/mL (≈ 9.36 µM); in [4] it was 0.33 µg/mL (≈ 0.594 µM); in assay [5], 0.33 µg/mL (≈ 0.594 µM); in assay [6] it was over 50 µg/mL; in [7] it was 0.33 µg/mL (≈ 0.594 µM). In addition, the MIC in [8] was over 41.7 µg/mL; in [9], 0.33 µg/mL (≈ 0.594 µM); in the assay with Escherichia coli ATCC 26 it was 0.08 µg/mL (≈ 0.144 µM); in assay [10] it was 0.04 µg/mL (≈ 0.072 µM).

For the origin of these results see patent publication US5717110A, “UCH15 compounds” (Kyowa Hakko Kogyo Co., Ltd., priority 1995, dated 1998).
